Measurements from PMC5557014 (Biochemical pharmacology, 2017).

Assays:
HIV-1 RT [1] = biological target: T1, HIV-1 RT (Human immunodeficiency virus type 1 group M subtype B, UniProt P04585); assay: HIV-1 RT assay with homopolymeric template/primers; format: biochemical; details: IC50 HIV-1 RT
HSV-1 DNA polymerase [2] = biological target: T2, HSV-1 DNA polymerase (Human herpesvirus 1, UniProt P04293); assay: HSV-1 DNA polymerase enzyme assay; format: biochemical; details: IC50 HSV-1 DNA pol, calf thymus DNA
HCMV DNA polymerase [3] = biological target: T3, HCMV DNA polymerase (Human cytomegalovirus, UniProt P08546); assay: HCMV DNA polymerase enzyme assay; format: biochemical; details: IC50 HCMV DNA pol, calf thymus DNA
HIV-1 RT [4] = biological target: T1, HIV-1 RT; assay: Site-specific Fe2+ footprinting, post-translocation trapping; format: binding
HIV-1 RT [5] = biological target: T1, HIV-1 RT; assay: Kinetic analysis of HIV-1 RT inhibition; format: biochemical
HSV-1 DNA polymerase [6] = biological target: T2, HSV-1 DNA polymerase; assay: biochemical; format: biochemical; details: varying dGTP, calf thymus DNA
HCMV DNA polymerase [7] = biological target: T3, HCMV DNA polymerase; assay: Kinetic analysis of HCMV DNA polymerase inhibition; format: biochemical; details: varying dGTP, calf thymus DNA
HIV-1 RT F61A = assay: Mutant HIV-1 RT assay F61A; format: biochemical; details: Poly rC.dG [^3H]dGTP
HIV-1 RT K65R = assay: Mutant HIV-1 RT assay K65R; format: biochemical; details: Poly rC.dG [^3H]dGTP
HIV-1 RT K70E = assay: Mutant HIV-1 RT assay K70E; format: biochemical; details: Poly rC.dG [^3H]dGTP
HIV-1 RT K70Q = assay: Mutant HIV-1 RT assay K70Q; format: biochemical; details: Poly rC.dG [^3H]dGTP
HIV-1 RT K70R = assay: Mutant HIV-1 RT assay K70R; format: biochemical; details: Poly rC.dG [^3H]dGTP
HIV-1 RT V75I = assay: Mutant HIV-1 RT assay V75I; format: biochemical; details: Poly rC.dG [^3H]dGTP
HIV-1 RT Y115F = assay: Mutant HIV-1 RT assay Y115F; format: biochemical; details: Poly rC.dG [^3H]dGTP
HIV-1 RT E138K = assay: Mutant HIV-1 RT assay E138K; format: biochemical; details: Poly rC.dG [^3H]dGTP
HIV-1 RT M184I = assay: Mutant HIV-1 RT assay M184I; format: biochemical; details: Poly rC.dG [^3H]dGTP
HIV-1 RT M184V = assay: Mutant HIV-1 RT assay M184V; format: biochemical; details: Poly rC.dG [^3H]dGTP
HIV-1 RT M184V + E138K = assay: Mutant HIV-1 RT assay M184V + E138K; format: biochemical; details: Poly rC.dG [^3H]dGTP
HIV-1 RT K103N = details: Poly rC.dG [^3H]dGTP
HIV-1 RT V106A = details: Poly rC.dG [^3H]dGTP
HIV-1 RT Y181C = details: Poly rC.dG [^3H]dGTP

T2 sequence (P04293 whole entry): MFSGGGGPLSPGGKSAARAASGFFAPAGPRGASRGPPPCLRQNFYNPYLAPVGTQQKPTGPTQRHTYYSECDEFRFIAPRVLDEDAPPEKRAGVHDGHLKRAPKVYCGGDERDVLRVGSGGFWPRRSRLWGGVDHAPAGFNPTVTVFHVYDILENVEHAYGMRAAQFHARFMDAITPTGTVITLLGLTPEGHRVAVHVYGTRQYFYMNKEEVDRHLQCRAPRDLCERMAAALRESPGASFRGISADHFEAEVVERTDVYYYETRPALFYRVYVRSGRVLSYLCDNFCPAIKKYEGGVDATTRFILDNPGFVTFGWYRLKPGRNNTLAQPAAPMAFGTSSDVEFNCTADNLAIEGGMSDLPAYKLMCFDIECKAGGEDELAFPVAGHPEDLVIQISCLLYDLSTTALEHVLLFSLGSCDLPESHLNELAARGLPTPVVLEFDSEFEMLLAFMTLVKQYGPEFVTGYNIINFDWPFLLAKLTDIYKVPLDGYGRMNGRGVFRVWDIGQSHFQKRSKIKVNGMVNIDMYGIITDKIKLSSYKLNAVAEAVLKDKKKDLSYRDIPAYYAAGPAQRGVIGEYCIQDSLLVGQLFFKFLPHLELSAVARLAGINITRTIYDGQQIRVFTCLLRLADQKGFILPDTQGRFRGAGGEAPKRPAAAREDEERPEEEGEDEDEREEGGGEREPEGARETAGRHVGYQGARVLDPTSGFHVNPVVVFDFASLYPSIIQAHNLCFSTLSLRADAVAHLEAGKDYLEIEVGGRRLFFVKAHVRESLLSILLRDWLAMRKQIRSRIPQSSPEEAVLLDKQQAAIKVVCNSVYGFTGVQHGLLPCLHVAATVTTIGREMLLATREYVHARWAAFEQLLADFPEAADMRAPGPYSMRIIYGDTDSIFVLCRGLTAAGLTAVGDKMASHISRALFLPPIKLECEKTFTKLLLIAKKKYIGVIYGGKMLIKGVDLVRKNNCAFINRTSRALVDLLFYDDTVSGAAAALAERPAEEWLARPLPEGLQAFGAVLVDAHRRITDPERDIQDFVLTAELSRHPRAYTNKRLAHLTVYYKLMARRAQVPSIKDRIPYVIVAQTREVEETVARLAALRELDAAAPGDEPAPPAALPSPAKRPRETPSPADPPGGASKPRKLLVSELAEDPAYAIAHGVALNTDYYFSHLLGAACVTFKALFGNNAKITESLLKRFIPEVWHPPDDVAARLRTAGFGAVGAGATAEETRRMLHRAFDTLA
T3 sequence (P08546 whole entry): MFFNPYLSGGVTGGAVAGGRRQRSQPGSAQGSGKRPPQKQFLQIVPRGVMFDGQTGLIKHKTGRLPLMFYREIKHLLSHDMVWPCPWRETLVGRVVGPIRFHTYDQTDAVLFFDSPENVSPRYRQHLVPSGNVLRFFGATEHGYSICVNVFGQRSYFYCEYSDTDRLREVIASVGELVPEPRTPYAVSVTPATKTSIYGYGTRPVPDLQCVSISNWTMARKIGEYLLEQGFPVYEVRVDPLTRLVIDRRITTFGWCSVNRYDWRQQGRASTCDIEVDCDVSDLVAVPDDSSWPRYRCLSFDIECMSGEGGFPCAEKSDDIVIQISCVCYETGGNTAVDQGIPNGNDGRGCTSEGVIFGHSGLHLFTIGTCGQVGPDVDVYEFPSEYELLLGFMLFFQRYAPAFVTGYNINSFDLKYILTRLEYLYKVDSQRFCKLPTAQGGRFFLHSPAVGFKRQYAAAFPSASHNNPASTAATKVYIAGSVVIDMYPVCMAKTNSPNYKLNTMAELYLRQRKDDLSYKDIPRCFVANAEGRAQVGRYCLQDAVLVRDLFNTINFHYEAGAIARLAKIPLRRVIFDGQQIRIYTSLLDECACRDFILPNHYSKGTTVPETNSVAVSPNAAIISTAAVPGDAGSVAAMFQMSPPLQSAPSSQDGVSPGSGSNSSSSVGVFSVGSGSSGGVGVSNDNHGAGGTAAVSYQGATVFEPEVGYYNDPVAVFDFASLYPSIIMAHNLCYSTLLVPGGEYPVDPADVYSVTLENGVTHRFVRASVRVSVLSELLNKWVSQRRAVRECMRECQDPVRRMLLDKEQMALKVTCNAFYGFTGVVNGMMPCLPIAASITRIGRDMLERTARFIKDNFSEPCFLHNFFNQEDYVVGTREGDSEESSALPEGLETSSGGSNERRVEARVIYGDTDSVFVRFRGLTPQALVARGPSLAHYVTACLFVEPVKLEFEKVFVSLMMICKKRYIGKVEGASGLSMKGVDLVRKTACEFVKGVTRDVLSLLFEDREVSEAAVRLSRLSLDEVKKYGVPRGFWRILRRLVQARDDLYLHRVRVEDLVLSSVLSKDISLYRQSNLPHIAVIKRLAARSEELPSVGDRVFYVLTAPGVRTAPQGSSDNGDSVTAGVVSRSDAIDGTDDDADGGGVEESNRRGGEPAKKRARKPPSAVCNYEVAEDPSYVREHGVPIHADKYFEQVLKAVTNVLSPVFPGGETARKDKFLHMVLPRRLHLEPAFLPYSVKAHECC

In the case of `Nc1nc2c(ncn2[C@@H]2CC[C@H](OC(C(=O)O)P(=O)(O)O)C2)c(=O)[nH]1` (mixture of isomers) [(L,D)-(±)G-α-CNP, cis-9-{4-[Carboxy(phosphono)methoxy]cyclopentan-1-yl}guanine], the IC50 (HIV-1 RT [1]; poly rA.dT, [^3H]dTTP) is reported as 536000 nM, the IC50 (HIV-1 RT [1]; poly rC.dG, [^3H]dGTP) is reported as 620 ± 190 nM and the IC50 (HSV-1 DNA polymerase [2]; [^3H]dGTP) is reported as 8000 ± 6000 nM. It also gave an IC50 (HSV-1 DNA polymerase [2]; [^3H]dTTP) of 32000 ± 11000 nM, an IC50 (HCMV DNA polymerase [3]; [^3H]dGTP) of 9400 ± 200 nM and an IC50 (HCMV DNA polymerase [3]; [^3H]dTTP) of 16000 ± 8000 nM. For the same compound, the EC50 (HIV-1 RT [4]) was 44 ± 2 nM, the Ki (HIV-1 RT [5]; competitive model, varying dGTP, poly rC.dG) was 455 nM and the Ki (HIV-1 RT [5]; competitive model, varying poly rC.dG) was 35 nM. It also gave a Ki (HIV-1 RT [5]; mixed model enzyme inhibition, varying dGTP, poly rC.dG) of 944 nM, a Ki (HIV-1 RT [5]; mixed model enzyme inhibition, varying poly rC.dG) of 832 nM and a Ki (HIV-1 RT [5]; non-competitive model, varying dGTP, poly rC.dG) of 1300 nM. For the same compound, the Ki (HIV-1 RT [5]; non-competitive model, varying poly rC.dG) was 169 nM, the “Most likely mode of inhibition” value (HIV-1 RT [5]; varying dGTP, poly rC.dG) was “Competitive” and the “α (alpha-value), mixed model enzyme inhibition” value (HIV-1 RT [5]; varying dGTP, poly rC.dG) was 1.799. For the same compound, the “Most likely mode of inhibition” value (HIV-1 RT [5]; varying poly rC.dG) was “Non-competitive”, the “α (alpha-value), mixed model enzyme inhibition” value (HIV-1 RT [5]; varying poly rC.dG) was 0.147 and the Ki (HSV-1 DNA polymerase [6]; competitive model) was 521 nM. For the same compound, the Ki (HSV-1 DNA polymerase [6]; mixed model enzyme inhibition) was 9280 nM, the Ki (HSV-1 DNA polymerase [6]; non-competitive model) was 4170 nM and the “Most likely mode of inhibition” value (HSV-1 DNA polymerase [6]) was “Non-competitive”. The “α (alpha-value), mixed model enzyme inhibition” value (HSV-1 DNA polymerase [6]) was 0.386, the Ki (HCMV DNA polymerase [7]; competitive model) was 2120 nM and the Ki (HCMV DNA polymerase [7]; mixed model enzyme inhibition) was 9200 nM. For the same compound, the Ki (HCMV DNA polymerase [7]; non-competitive model) was 8590 nM, the “Most likely mode of inhibition” value (HCMV DNA polymerase [7]) was “Non-competitive” and the “α (alpha-value), mixed model enzyme inhibition” value (HCMV DNA polymerase [7]; listed as (D,L)-(−,+)-G-α-CNP) was 0.904. For the same compound, the “Fold-resistance compared to wild-type” value (HIV-1 RT F61A) was 79 fold, the “Fold-resistance compared to wild-type” value (HIV-1 RT K65R) was 2.1 fold and the “Fold-resistance compared to wild-type” value (HIV-1 RT K70E) was 0.7 fold. The “Fold-resistance compared to wild-type” value (HIV-1 RT K70Q) was 0.7 fold, the “Fold-resistance compared to wild-type” value (HIV-1 RT K70R) was 2.6 fold and the “Fold-resistance compared to wild-type” value (HIV-1 RT V75I) was 8.7 fold. For the same compound, the “Fold-resistance compared to wild-type” value (HIV-1 RT Y115F) was 2.3 fold, the “Fold-resistance compared to wild-type” value (HIV-1 RT E138K) was 0.9 fold and the “Fold-resistance compared to wild-type” value (HIV-1 RT M184I) was 19 fold. For the same compound, the “Fold-resistance compared to wild-type” value (HIV-1 RT M184V) was 8.7 fold, the “Fold-resistance compared to wild-type” value (HIV-1 RT M184V + E138K) was 6.1 fold and the “Fold-resistance compared to wild-type” value (HIV-1 RT K103N) was 1.1 fold. For the same compound, the “Fold-resistance compared to wild-type” value (HIV-1 RT V106A) was 1.6 fold and the “Fold-resistance compared to wild-type” value (HIV-1 RT Y181C) was 5.2 fold.
